{"source": "patent US20080057054A1", "about": "“Modulation of Phagocytosis in Neurons” (Vlaams Interuniversitair Instituut Voor Biotechnol, priority 2004, published 2008)", "biological_target": "T1, γ-secretase (Homo sapiens, UniProt P49768)", "T1 construct": "endogenous in cells; host or cells: HeLa cells", "assay": "γ-secretase luciferase reporter assay (Gal4VP16 inducer constructs)", "assay_type": "cell-based", "parameters": "dose or concentration left out as unconfirmed", "settings": "lysed after 16 hrs; for nuclear translocation of the inducer fragment (luciferase activity), APP: APP-Gal4VP16 inducer in Hela cells; for nuclear translocation of the inducer fragment (luciferase activity), Notch: NotchΔE-Gal4VP16 inducer in Hela cells", "excerpt": "In wild-type hippocampal neurons, TLN localizes to the plasmalemma whereas in 30% of PS1−/− neurons, TLN additionally accumulates in large somatic structures, the identity of which remained elusive (Annaert et al., 2001). […] Therefore we tested whether TLN is a γ-secretase substrate. In 15 day old PS1−/− hippocampal cultures we could not detect any TLN C-terminal fragment (CTF) as apposed to APP-CTF that readily accumulate. Even upon Semliki Forest Virus (SFV)-induced overexpression, no TLN-CTF was detected. Since no putative mechanism of shedding of the TLN ectodomain is known, we generated a TLNΔE that could serve as a potential γ-secretase substrate. No intracellular domain fragments were however detected indicating the absence of γ-secretase cleavage. […] Release of a potential intracellular domain of TLN can be measured via the activity of luciferase. […] To investigate whether the TLN transmembrane domain could be a γ-secretase substrate in the context of the APP protein, we swapped the transmembrane regions of TLN and APP to create an APP/TLNTMR-chimaera. Even in this case no activity could be detected. Therefore we conclude that TLN is most likely not a γ-secretase substratum.\npSFV constructs encoding human APP, murine TLN and TLNΔE have been described (Annaert et al., 2001). APP and NotchΔE were cloned into the EcoRV site in front of the Gal4VP16 sequence in pIPAdApt vector. A construct encoding 10 aa of the ectodomain, the transmembrane and cytosolic domains of TLN was obtained by PCR and ligated in pGEMT containing the TLN signal peptide (SP). SP-TLNΔE was next cloned into pIPAdApt and GAL 4VP16 was inserted resulting in a pIPAdApt-SP-TLNΔE-Gal4-VP16 construct. For the APP/TLNTMR chimaera, the coding region for APP-TMR was replaced by a PCR fragment encoding the TLN-TMR. Luciferase assay. Hela cells were transfected with 200 ng pFRluc plasmid (UAS-responsive luciferase construct, Stratagene) and 200 ng inducer plasmid using Fugene ([…]) and after 16 hrs lysed and assayed (Victor2, PerkinElmer).", "data": [{"smiles": "C[C@H](NC(=O)Cc1cc(F)cc(F)c1)C(=O)N[C@H](C(=O)OC(C)(C)C)c1ccccc1", "note": "[DAPT]", "values": [{"measurement": "nuclear translocation of the inducer fragment (luciferase activity), APP", "result": "strongly inhibited"}, {"measurement": "nuclear translocation of the inducer fragment (luciferase activity), Notch", "result": "strongly inhibited"}]}, {"smiles": "CC(C)C[C@H](NC(=O)[C@H](Cc1ccccc1)C[C@@H](O)[C@H](Cc1ccccc1)NC(=O)OC(C)(C)C)C(=O)N[C@@H](Cc1ccccc1)C(N)=O", "note": "[L685,458]", "values": [{"measurement": "nuclear translocation of the inducer fragment (luciferase activity), APP", "result": "strongly inhibited"}, {"measurement": "nuclear translocation of the inducer fragment (luciferase activity), Notch", "result": "strongly inhibited"}]}]}
